The text below walks through data of EP4786487A1, “PEPTIDE” (Peptidream Inc, priority 2023, dated 2025).

One test concerns the target T1, Myostatin (Homo sapiens, UniProt O14793).
T1 construct: active myostatin (also called mature myostatin) is a homodimer consisting of two C-terminal growth factor domains; purchased R&D systems 788-G8/CF
T1 sequence (O14793 267-375): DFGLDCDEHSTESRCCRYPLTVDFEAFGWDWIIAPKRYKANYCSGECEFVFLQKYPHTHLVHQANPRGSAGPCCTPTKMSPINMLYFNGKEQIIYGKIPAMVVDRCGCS
The test can be described thus: HepG2 reporter gene assay, Evaluation Procedure (2): 2-concentrations assay, myostatin inhibition. Type of test: cell-based. Particulars: Myostatin 10 ng/mL, HepG2; for inhibition at 0.03 µM: peptide 30nM, read-out: Myostatin Inhibition 30nM; for inhibition at 0.1 µM: peptide 100nM, read-out: Myostatin Inhibition 100nM. How it is done: (§1) The pGL3(CAGA)12-luc plasmid, namely a pGL3 vector (E1751, Promega) having a luciferase gene inserted downstream of a promoter sequence with 12 CAGA repeats attached, was transfected into HepG2 cell line (HB-8065, ATCC). The culture of HepG2 cell line (HB-8065, ATCC) was performed as in the Evaluation Procedure (1).
(§2) Myostatin (788-G8/CF, R&D systems) or GDF-11 (1958-GD-G8/CF, R&D systems) was added at a final concentration of 10 ng/mL. […] At this time, blank wells, in which neither myostatin, GDF-11, nor each peptide was added, were also prepared and incubated in a CO2 incubator (37°C, 5% CO2) for 20 to 24 hours.
(§3) The medium containing the cells was removed, and a mixture containing PBS (14190144, Thermo) and a chromogenic substrate One-Glo Luciferase Assay System (E6120, Promega) at a ratio of 1:1 was added to each well at 100 µL/well. This was stirred with a plate shaker for 5 min and transferred to a 384-well plate (3570, Corning) at a volume of 20 µL/well.
(§4) The plate was centrifuged at 1,000 × g for 1 min and the luminescence signal (700 nm luminescence) was measured using a plate reader (Envision 2104, PerkinElmer). Based on the measurement results, the inhibition rate at each peptide concentration was calculated. […]
A general note: A reporter such as luciferase makes a cellular process visible.

Another test addresses T2, GDF-11 (Homo sapiens, UniProt O95390).
T2 construct: purchased R&D systems 1958-GD-G8/CF
T2 sequence (O95390 299-407): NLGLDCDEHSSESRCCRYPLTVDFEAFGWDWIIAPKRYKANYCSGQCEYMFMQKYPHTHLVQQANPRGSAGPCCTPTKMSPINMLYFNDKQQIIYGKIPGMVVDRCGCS
The test is described as follows: HepG2 reporter gene assay, Evaluation Procedure (2): 2-concentrations assay, GDF-11 inhibition. The settings on record: GDF-11 10 ng/mL; for inhibition at 0.03 µM: HepG2, peptide 30nM, read-out: GDF11 Inhibition 30nM; for inhibition at 0.1 µM: HepG2, peptide 100nM, read-out: GDF11 Inhibition 100nM. Type of test: cell-based. How it is done:
as §1, §2, §3, §4

Positions of bridges follow the written chain, without caps; N, C: chain ends. Non-standard residues stand in square brackets, D forms with d. Residues, ends and D or L forms follow the SMILES beside them. Phe(4-COOH) = N[C@@H](Cc1ccc(C(=O)O)cc1)C(=O)O; Trp(7-aza) = N[C@@H](Cc1c[nH]c2ncccc12)C(=O)O; 3Pal(6-NH2) = Nc1ccc(C[C@H](N)C(=O)O)cn1; Gly(N(CH2)3COOH) = O=C(O)CCCNCC(=O)O; NMeF = CN[C@@H](Cc1ccccc1)C(=O)O; 3Pal = N[C@@H](Cc1cccnc1)C(=O)O; 4Pal = N[C@@H](Cc1ccncc1)C(=O)O; NMeA = CN[C@@H](C)C(=O)O; Sar = CNCC(=O)O

Take `CC[C@H](C)[C@@H]1NC(=O)[C@H](Cc2ccccc2)N(C)C(=O)[C@H](Cc2ccc(O)cc2)NC(=O)[C@H](Cc2c[nH]c3ccccc23)NC(=O)[C@H](C)NC(=O)CN(CCCC(=O)O)C(=O)CSC[C@H](C(N)=O)NC(=O)[C@H](Cc2ccccc2)N(C)C(=O)[C@H](C)N(C)C(=O)[C@H](CC(C)C)NC(=O)[C@H](Cc2ccccc2)N(C)C(=O)[C@H](CCCNC(=N)N)NC(=O)[C@H](Cc2ccc(C(=O)O)cc2)NC(=O)[C@H](Cc2ccc(O)cc2)NC(=O)[C@H](C)N(C)C1=O` [Myostatin_99_Variant_15] ({CH2CO}-[Gly(N(CH2)3COOH)]AWY[NMeF]I[NMeA]Y[Phe(4-COOH)]R[NMeF]L[NMeA][NMeF][dC]-NH2; thioether N-15): the inhibition (as a rule, the drop in the measured response relative to a control, in per cent) at 0.03 µM on Myostatin turned out to be 54%; at GDF-11, 0%. The inhibition at 0.1 µM stood at 84% on Myostatin and 0% at GDF-11.

As to `CC[C@H](C)[C@@H]1NC(=O)[C@H](Cc2ccccc2)N(C)C(=O)[C@H](Cc2ccc(O)cc2)NC(=O)[C@H](Cc2c[nH]c3ccccc23)NC(=O)[C@H](C)NC(=O)CN(CCCC(=O)O)C(=O)CSC[C@H](C(N)=O)NC(=O)[C@H](Cc2ccccc2)N(C)C(=O)[C@H](C)N(C)C(=O)[C@H](CC(C)C)NC(=O)[C@H](Cc2ccccc2)N(C)C(=O)[C@H](CCCNC(=N)N)NC(=O)[C@H](Cc2cccnc2)NC(=O)[C@H](Cc2ccc(O)cc2)NC(=O)CN(C)C1=O` [Myostatin_99_Variant_16] ({CH2CO}-[Gly(N(CH2)3COOH)]AWY[NMeF]I[Sar]Y[3Pal]R[NMeF]L[NMeA][NMeF][dC]-NH2; thioether N-15), the inhibition at 0.03 µM on Myostatin stood at 34%; on GDF-11 it was 0%. Besides, the results for the inhibition at 0.1 µM at Myostatin and on GDF-11 were 75% and 4%, respectively.

For `CC[C@H](C)[C@@H]1NC(=O)[C@H](Cc2ccccc2)N(C)C(=O)[C@H](Cc2ccc(O)cc2)NC(=O)[C@H](Cc2c[nH]c3ccccc23)NC(=O)[C@H](C)NC(=O)CN(CCCC(=O)O)C(=O)CSC[C@H](C(N)=O)NC(=O)[C@H](Cc2ccccc2)N(C)C(=O)[C@H](C)N(C)C(=O)[C@H](CC(C)C)NC(=O)[C@H](Cc2ccccc2)N(C)C(=O)[C@H](CCCNC(=N)N)NC(=O)[C@H](Cc2ccncc2)NC(=O)[C@H](Cc2ccc(O)cc2)NC(=O)CN(C)C1=O` [Myostatin_99_Variant_17] ({CH2CO}-[Gly(N(CH2)3COOH)]AWY[NMeF]I[Sar]Y[4Pal]R[NMeF]L[NMeA][NMeF][dC]-NH2; thioether N-15), the inhibition at 0.03 µM at Myostatin amounted to 37%; at GDF-11 it was 0%. For the same molecule, the inhibition at 0.1 µM at Myostatin came to 72%; on GDF-11, 14%.

For `CC[C@H](C)[C@@H]1NC(=O)[C@H](Cc2ccccc2)N(C)C(=O)[C@H](Cc2ccc(O)cc2)NC(=O)[C@H](Cc2c[nH]c3ccccc23)NC(=O)[C@H](C)NC(=O)CN(CCCC(=O)O)C(=O)CSC[C@H](C(N)=O)NC(=O)[C@H](Cc2ccccc2)N(C)C(=O)[C@H](C)N(C)C(=O)[C@H](CC(C)C)NC(=O)[C@H](Cc2ccccc2)N(C)C(=O)[C@H](CCCNC(=N)N)NC(=O)[C@H](Cc2ccc(C(=O)O)cc2)NC(=O)[C@H](Cc2ccncc2)NC(=O)CN(C)C1=O` [Myostatin_99_Variant_18] ({CH2CO}-[Gly(N(CH2)3COOH)]AWY[NMeF]I[Sar][4Pal][Phe(4-COOH)]R[NMeF]L[NMeA][NMeF][dC]-NH2; thioether N-15), on Myostatin, the inhibition at 0.03 µM came out at 56% and the inhibition at 0.1 µM was determined as 80%. On GDF-11, the inhibition at 0.03 µM was 0% and the inhibition at 0.1 µM turned out to be 0%.

Turning to `CC[C@H](C)[C@@H]1NC(=O)[C@H](Cc2ccccc2)N(C)C(=O)[C@H](Cc2ccc(O)cc2)NC(=O)[C@H](Cc2c[nH]c3ncccc23)NC(=O)[C@H](C)NC(=O)CN(CCCC(=O)O)C(=O)CSC[C@H](C(N)=O)NC(=O)[C@H](Cc2ccccc2)N(C)C(=O)[C@H](C)N(C)C(=O)[C@H](CC(C)C)NC(=O)[C@H](Cc2ccccc2)N(C)C(=O)[C@H](CCCNC(=N)N)NC(=O)[C@H](Cc2ccc(C(=O)O)cc2)NC(=O)[C@H](Cc2ccccc2)NC(=O)CN(C)C1=O` [Myostatin_99_Variant_20] ({CH2CO}-[Gly(N(CH2)3COOH)]A[Trp(7-aza)]Y[NMeF]I[Sar]F[Phe(4-COOH)]R[NMeF]L[NMeA][NMeF][dC]-NH2; thioether N-15), on Myostatin, the inhibition at 0.03 µM was 62% and the inhibition at 0.1 µM was determined as 89%. In addition, at GDF-11, the inhibition at 0.03 µM came to 0% and the inhibition at 0.1 µM was 0%.

On to `CC[C@H](C)[C@@H]1NC(=O)[C@H](Cc2ccccc2)N(C)C(=O)[C@H](Cc2ccc(O)cc2)NC(=O)[C@H](Cc2c[nH]c3ncccc23)NC(=O)[C@H](C)NC(=O)CN(CCCC(=O)O)C(=O)CSC[C@H](C(N)=O)NC(=O)[C@H](Cc2ccccc2)N(C)C(=O)[C@H](C)N(C)C(=O)[C@H](CC(C)C)NC(=O)[C@H](Cc2ccccc2)N(C)C(=O)[C@H](CCCNC(=N)N)NC(=O)[C@H](Cc2ccc(C(=O)O)cc2)NC(=O)[C@H](Cc2ccncc2)NC(=O)CN(C)C1=O` [Myostatin_99_Variant_21] ({CH2CO}-[Gly(N(CH2)3COOH)]A[Trp(7-aza)]Y[NMeF]I[Sar][4Pal][Phe(4-COOH)]R[NMeF]L[NMeA][NMeF][dC]-NH2; thioether N-15), for which, at Myostatin, the inhibition at 0.03 µM is 40% and the inhibition at 0.1 µM was 76%. On GDF-11, the inhibition at 0.03 µM is 0% and the inhibition at 0.1 µM was found to be 0%.

With `CC[C@H](C)[C@@H]1NC(=O)[C@H](Cc2ccccc2)N(C)C(=O)[C@H](Cc2ccc(O)cc2)NC(=O)[C@H](Cc2c[nH]c3ncccc23)NC(=O)[C@H](C)NC(=O)CN(CCCC(=O)O)C(=O)CSC[C@H](C(N)=O)NC(=O)[C@H](Cc2ccccc2)N(C)C(=O)[C@H](C)N(C)C(=O)[C@H](CC(C)C)NC(=O)[C@H](Cc2ccccc2)N(C)C(=O)[C@H](CCCNC(=N)N)NC(=O)[C@H](Cc2cccnc2)NC(=O)[C@H](Cc2ccccc2)NC(=O)CN(C)C1=O` [Myostatin_99_Variant_22] ({CH2CO}-[Gly(N(CH2)3COOH)]A[Trp(7-aza)]Y[NMeF]I[Sar]F[3Pal]R[NMeF]L[NMeA][NMeF][dC]-NH2; thioether N-15), the inhibition at 0.03 µM on Myostatin was 45%; at GDF-11, 0%. For the same molecule, the results for the inhibition at 0.1 µM on Myostatin and on GDF-11 were 72% and 0%, respectively.

Consider `CC[C@H](C)[C@@H]1NC(=O)[C@H](Cc2ccccc2)N(C)C(=O)[C@H](Cc2ccc(O)cc2)NC(=O)[C@H](Cc2c[nH]c3ccccc23)NC(=O)[C@H](C)NC(=O)CN(CCCC(=O)O)C(=O)CSC[C@H](C(N)=O)NC(=O)[C@H](Cc2ccccc2)N(C)C(=O)[C@H](C)N(C)C(=O)[C@H](CC(C)C)NC(=O)[C@H](Cc2ccccc2)N(C)C(=O)[C@H](CCCNC(=N)N)NC(=O)[C@H](Cc2cccnc2)NC(=O)[C@H](Cc2ccncc2)NC(=O)CN(C)C1=O` [Myostatin_99_Variant_23] ({CH2CO}-[Gly(N(CH2)3COOH)]AWY[NMeF]I[Sar][4Pal][3Pal]R[NMeF]L[NMeA][NMeF][dC]-NH2; thioether N-15), for which, on Myostatin, the inhibition at 0.03 µM was found to be 32% and the inhibition at 0.1 µM was 71%. Moreover, at GDF-11, the inhibition at 0.03 µM was 0% and the inhibition at 0.1 µM is 0%.

For `CC[C@H](C)[C@@H]1NC(=O)[C@H](Cc2ccccc2)N(C)C(=O)[C@H](Cc2ccc(N)nc2)NC(=O)[C@H](Cc2c[nH]c3ncccc23)NC(=O)[C@H](C)NC(=O)CN(CCCC(=O)O)C(=O)CSC[C@H](C(N)=O)NC(=O)[C@H](Cc2ccccc2)N(C)C(=O)[C@H](C)N(C)C(=O)[C@H](CC(C)C)NC(=O)[C@H](Cc2ccccc2)N(C)C(=O)[C@H](CCCNC(=N)N)NC(=O)[C@H](Cc2ccc(C(=O)O)cc2)NC(=O)[C@H](Cc2ccccc2)NC(=O)CN(C)C1=O` [Myostatin_99_Variant_24] ({CH2CO}-[Gly(N(CH2)3COOH)]A[Trp(7-aza)][3Pal(6-NH2)][NMeF]I[Sar]F[Phe(4-COOH)]R[NMeF]L[NMeA][NMeF][dC]-NH2; thioether N-15), at Myostatin, the inhibition at 0.03 µM turned out to be 1% and the inhibition at 0.1 µM was 54%. Moreover, on GDF-11, the inhibition at 0.03 µM worked out at 0% and the inhibition at 0.1 µM is 0%.
